Assay results as given in patent US6855513B1 (priority 1999, dated 2005).

Key:
qsc102 = assay: Acyl-HSL induction of β-galactosidase in qsc102 mutant; type: cell-based, Pseudomonas aeruginosa; conditions: for Signal response (β-galactosidase activity with signal(s) divided by activity without added signals), maximum: qsc102, Class I, 3OC12-HSL 2 μM, C4-HSL 5 μM
Experimental: (§1) E. coli and P. aeruginosa were routinely grown in Luria-Bertani (LB) broth or LB agar (Sambrook, et al. (1989) Molecular Cloning: a Laboratory Manual. (Cold Spring Harbor Laboratory, Cold Spring Harbor, N.Y.)), supplemented with antimicrobial agents when necessary. The antimicrobial agents were used at the following concentrations: HgCl2, 15 μg/ml in agar and 7.5 μg/ml in broth; nalidixic acid 20 μg/ml; carbenicillin, 300 μg/ml; tetracycline, 50 μg/ml for P. aeruginosa and 20 μg/ml for E. coli; and gentamicin, 100 μg/ml for P. aeruginosa and 15 μg/ml for E. coli. Synthetic acyl-HSL concentrations were 2 μM for 3OC12-HSL and 5 μM for C4-HSL, and 5-bromo4-chloro-3-indolyl-β-D-galactopyranoside (X-Gal) was used at 50 μg/ml.
Patterns of Acyl-HSL Induction of β-galactosidase Activity in qsc Mutants. The pattern of β-galactosidase expression was examined in response to acyl-HSLs in each of 47 qsc mutants identified in the initial screen. Each mutant was grown in 1 ml of MOPS (50 mM, pH 7.0) buffered LB broth containing one, the other, both, or neither acyl-HSL signal in an 18 mm culture tube at 37° C. with shaking. A mid-logarithmic phase culture was used as an inoculum and initial optical densities (ODs) at 600 nm were 0.1. Growth was monitored as OD at 600 nm and β-galactosidase activity was measured in 0.1 ml samples taken at 0, 2, 5, and 9 hours after inoculation.
One assay used the P. aeruginosa strain QSC102 (Table 3), which responds to the presence of exogenous 3-oxo-C12-HSL by inducing β-galactosidase activity up to 400-fold (Example 1). Cells were grown in the presence of a minimal concentration of 3-oxo-C12-HSL and in the presence and absence of the test compound. If the test compound interferes with signal reception, β-galactosidase activity is reduced. Interference can be a result of any of several mechanisms. The simplest is, if the test compound prevents the 3oxo-C12-HSL from binding to LasR. Alternatively, the test compound may prevent LasR from binding to DNA or interacting productively with RNA polymerase.

[1] = tested on: qsc104 (Polyamine binding protein); assay: Acyl-HSL induction of β-galactosidase in qsc104 mutant; type: cell-based, Pseudomonas aeruginosa; conditions: qsc104, Class I; 3OC12-HSL 2 μM, C4-HSL 5 μM
qsc114 = assay: Acyl-HSL induction of β-galactosidase in qsc114 mutant; type: cell-based, Pseudomonas aeruginosa; conditions: qsc114, Class II; 3OC12-HSL 2 μM, C4-HSL 5 μM
qsc116 = assay: Acyl-HSL induction of β-galactosidase in qsc116 mutant; type: cell-based, Pseudomonas aeruginosa; conditions: qsc116, Class II; 3OC12-HSL 2 μM, C4-HSL 5 μM
qsc118 (RhlI) = assay: Acyl-HSL induction of β-galactosidase in qsc118 mutant; type: cell-based, Pseudomonas aeruginosa; conditions: qsc118, Class III; 3OC12-HSL 2 μM, C4-HSL 5 μM
[2] = tested on: qsc130 (glc operon transcriptional activator); assay: Acyl-HSL induction of β-galactosidase in qsc130 mutant; type: cell-based, Pseudomonas aeruginosa; conditions: qsc130, Class III; 3OC12-HSL 2 μM, C4-HSL 5 μM
qsc131 (PhzC) = assay: Acyl-HSL induction of β-galactosidase in qsc131 mutant; type: cell-based, Pseudomonas aeruginosa; conditions: qsc131, Class III; 3OC12-HSL 2 μM, C4-HSL 5 μM
qsc133A&B (AcrB) = assay: Acyl-HSL induction of β-galactosidase in qsc133A&B mutants; type: cell-based, Pseudomonas aeruginosa; conditions: Class IV, 3OC12-HSL 2 μM, C4-HSL 5 μM
[3] = tested on: lasB-lacZ chromosomal fusion; assay: Acyl-HSL response of lasB-lacZ chromosomal fusion in P. aeruginosa PAO-MW1; type: cell-based, Pseudomonas aeruginosa; conditions: late response
Experimental: as §1
A mutant strain, P. aeruginosa PAO-MW 10, which contains a lacZ reporter in the chromosomal lasB gene was constructed by introduction of pMW300 into PAO-MW1 by triparental mating as described above. Exconjugants resistant to gentamicin and sensitive to chloramphenicol were selected as potential recombinants.
Patterns of Acyl-HSL Induction of β-galactosidase Activity in qsc Mutants. The pattern of β-galactosidase expression was examined in response to acyl-HSLs in each of 47 qsc mutants identified in the initial screen. […] Growth was monitored as OD at 600 nm and β-galactosidase activity was measured in 0.1 ml samples taken at 0, 2, 5, and 9 hours after inoculation.

[4] = tested on: quorum sensing signaling (Las system), QSC102 lacZ; assay: Two-strain (PAO1 / QSC102) screening assay for quorum sensing inhibiting compounds; type: cell-based, Pseudomonas aeruginosa; conditions: β-galactosidase / blue color on X-gal
Experimental: In this example, the screening assay used two strains of P. aeruginosa: a wild type P. aeruginosa (PAO1) and QSC102, from Example 1 (see FIG. 8). This assay will detect inhibition of all aspects of quorum sensing signaling, e.g., signal generation and signal reception.
Microtiter plates are prepared by adding 200 μL Luria Broth (“LB”) agar, containing 0.008% 5-bromo-4-chloro-3-indolyl-β-D-galactose (X-gal) to each well. Overnight cultures of PAO1 and QSC102 are subcultured in LB to a starting absorbance at 600 nm (“A600”) of 0.05 and grown at 37° C to an A600 of 1.0. PAO1 is diluted 2.5×10^5-fold in LB and 5 μL of this is applied to the surface of the LB agar in each well. Plates are then dried in a laminar flow hood for 60 minutes. A tenfold dilution of QSC102 in LB is used to inoculate each well using a replicator. Plates are then sealed and incubated at 37° C for 40 hours. Growth and color development are evaluated visually and the data is recorded with a camera.
The test compound was present in a microtiter well and overlaid with LB agar and 5-bromo-4-chloro-3-indolyl-β-D-galactose (X-gal). Both strains were spotted on the agar in each well. […] Inhibition of signaling was evaluated qualitatively by the absence or weakening of the blue color development.

[5] = tested on: P. aeruginosa lasI mutant biofilm; conditions: flow-through chamber; resistance to 0.2% sodium dodecyl sulfate; cited from earlier work

SMILES	Signal response (β-galactosidase activity with signal(s) divided by activity without added signals), maximum (qsc102)	Induction of β-galactosidase activity (qsc102; strain QSC102, exogenous signal)	Signal response (β-galactosidase activity with signal(s) divided by activity without added signals), maximum [1]	Signal response (β-galactosidase activity with signal(s) divided by activity without added signals), maximum (qsc114)	Signal response (β-galactosidase activity with signal(s) divided by activity without added signals), maximum (qsc116)	Signal response (β-galactosidase activity with signal(s) divided by activity without added signals), maximum (qsc118 (RhlI))	Signal response (β-galactosidase activity with signal(s) divided by activity without added signals), maximum [2]	Signal response (β-galactosidase activity with signal(s) divided by activity without added signals), maximum (qsc131 (PhzC))	Signal response (β-galactosidase activity with signal(s) divided by activity without added signals), maximum (qsc133A&B (AcrB))	Stimulation of lasB-lacZ fusion over background [3]	Response of the QSC102 lacZ fusion to the signal [4]	Biofilm phenotype after adding signal back to lasI mutant cells [5]
CCCCCCCCCC(=O)CC(=O)N[C@H]1CCOC1=O [3OC12-HSL, N-(3-oxododecanoyl) homoserine lactone]	350	up to 400 fold	7	9	5	38	5	50	1	3 fold	responded by turning blue	wild type phenotype was restored
CCCC(=O)N[C@H]1CCOC1=O [C4-HSL, butanoyl-HSL]	1		2	1	1	14	1	168	1		did not respond	
